# Measurements from US9006439B2, “Camptothecin derivatives having anti-tumor activity” (priority 2011, dated 2015).
# Where two headings read alike, the source gives them in different places. Marks after values point to notes of the source that are not given here.
# Assays:
# [1] = tested on: A549 (non-small cell lung cancer) cells; assay: MTT in vitro cytotoxicity, A549; format: cell-based, human; conditions: read-out: Concentration to inhibit 50% cell growth (IC50 nM ± SD), A549
# Method: (§1) In vitro cytotoxicity was measured with MTT. Cell suspension was prepared using cells in good condition and seeded at 200 μl/well on a 96 well plate before culturing for 24 hours in a temperature-controlled CO2 incubator. The test drug was added at 20 μl/well and cultured for 48 hours. MTT was added to the 96 well plate at 20 ul/well and allowed to react for 4 hours in the incubator. The supernatant was removed and DMSO was added at 20 μl/well. Cytotoxicity was determined by the absorbance measured by Enzyme-linked immunosorbent assay at a wavelength of 570 nm.
# [2] = tested on: OV-3 (ovarian cancer) cells; assay: MTT in vitro cytotoxicity, OV-3; format: cell-based, human; conditions: read-out: Concentration to inhibit 50% cell growth (IC50 nM ± SD), OV-3
# Method: as §1
# [3] = tested on: BX-PC3 (pancreatic cancer) cells; assay: MTT in vitro cytotoxicity, BX-PC3; format: cell-based, human; conditions: read-out: Concentration to inhibit 50% cell growth (IC50 nM ± SD), BX-PC3
# Method: as §1
# [4] = tested on: HT-29 (colon cancer) cells; assay: MTT in vitro cytotoxicity, HT-29; format: cell-based, human; conditions: read-out: Concentration to inhibit 50% cell growth (IC50 nM ± SD), HT-29
# Method: as §1
# [5] = tested on: U87, BX-PC3, HT-29, OV-3 and A549 cell lines; assay: MTT in vitro cytotoxicity, five cell lines together (mean / overall); conditions: for in vitro activity / cytotoxicity (in words): MTT, A549, HT-29, OV-3, U87, BX-PC3
# Method: as §1
# U87 (glioma) cells = assay: MTT in vitro cytotoxicity, U87; format: cell-based, human; conditions: read-out: Concentration to inhibit 50% cell growth (IC50 nM ± SD), U87
# Method: as §1
# [6] = tested on: intra-cerebrally transplanted U87 human glioma brain tumor; assay: Therapeutic effect on intra-cerebrally transplanted U87 brain tumor; format: in vivo, mice
# Excerpt: Methods: female nude mice were used for the experiments.
# Dosing regimen: once every two days, a total of four times; route of administration: intravenous injection at the tail vein. Mice died from brain tumor after inoculation with 2×10^5 cells. #: Comparing CPT1 with irinotecan and gimatecan.
# [7] = tested on: MX-1 human breast cancer xenograft; assay: Therapeutic effect on nude mouse with MX-1 xenograft; format: in vivo; conditions: for Maximum change in weight (%) / Tumor disappear: iv; for Tumor disappear: animals with tumor not detectable visually, observed for 60 days; for T.S. (mm3) D 16: tumor size 16 days after treatment, iv tail vein; for T.S. (mm3) D 16 / T.S. (mm3) D 0: MX-1; for T.S. (mm3) D 0: tumor size at day 0 (baseline)
# Method: (§2) Methods: female nude mice were used for the experiments. Transplantation of tumors: Actively growing tumor tissues were cut into small pieces with sterilized scissors and each mouse was inoculated with 50 mg of the tumor tissue. Treatment began on days 6-10 after tumor transplantation when the weight of the tumor was around 300 mg. The nude mice were weighed and the tumor size was measured every other day. Transplanted tumors: human breast cancer (MX-1), human non-small cell lung cancer (A549), human ovarian carcinoma (SK-0V3), human colon carcinoma (HT29), human pancreatic cancer (BX-PC-3).
# B: Tumor disappearance: tumor could not be detected visually 60 days after the experiment
# [8] = Determination of equitoxic dose (maximum tolerated dose); format: in vivo, nude mice; conditions: q2dx4, decrease in weight of around 15%; for MTD: nude, mouse, in vivo, intravenous, read-out: Experimentally determined dosage at the same level of toxicity (maximum tolerated dose)
# Method: (§3) CP1 had better solubility and stability than CPT2-10.
# Dosing regimen: once every two days, a total of four times; route of administration: intravenous injection at the tail vein. # At 16 days after treatment. […] The doses used were those that were determined experimentally to cause the same toxicity of weight decrease by 12-15%. T.S: tumor size
# [9] = tested on: SK-OV3 human ovarian carcinoma xenograft; assay: Therapeutic effect on nude mice with SK-OV3 xenograft; format: in vivo; design: Tumor inhibition: unit not given here; conditions: for Tumor inhibition: 16 days after treatment; for Tumor inhibition / Maximum change in weight (%): iv; for Tumor inhibition / T.S. (mm3) D 16 / T.S. (mm3) D 0: SK-OV3; for T.S. (mm3) D 16: tumor size 16 days after treatment, iv tail vein; for T.S. (mm3) D 0: tumor size at day 0 (baseline)
# Method: as §2
# [10] = tested on: a variety of transplanted tumors; conditions: at maximum tolerated dose
# Method: as §2
# [11] = Solubility and stability comparison; format: physicochemical
# Excerpt: as §3
# [12] = MTT, drug cultured 48 hours, A549
# [13] = MTT, drug cultured 48 hours, OV-3
# [14] = MTT, drug cultured 48 hours, BX-PC3
# [15] = MTT, drug cultured 48 hours, HT-29
# [16] = read-out: Concentration to inhibit 50% cell growth, mean (average concentration), mean over U87, BX-PC3, HT-29, OV-3, A549
# [17] = MTT, drug cultured 48 hours, U87
# [18] = inoculation with 2×10^5 U87 cells intra-cerebrally, iv, once every two days, four times
# [19] = MX-1 nude mouse, once every two days, four times
# [20] = once every two days, four times
# [21] = SK-OV3 nude mice, once every two days, four times
Compound,"IC50 [1, 12] [nM]","IC50 [2, 13] [nM]","IC50 [3, 14] [nM]","IC50 [4, 15] [nM]","IC50 [5, 16] [nM]",IC50 (U87 (glioma) cells; [17]) [nM],"Tumor disappear [7, 20]","T.S. (mm3) D 16 [7, 20] [mm3]",T.S. (mm3) D 0 [7] [mm3],"Tumor inhibition [9, 20]","T.S. (mm3) D 16 [9, 20] [mm3]",T.S. (mm3) D 0 [9] [mm3],in vitro activity / cytotoxicity (in words) [5],also measured
9-t-butyloxyethyloxime-10-hydroxy-camptothecin [CPT2],14.1 ± 1.2,16.1 ± 2.5,5.1 ± 2,7.1 ± 1.6,9.1,2.9 ± 1.1,–,–,–,–,–,–,–,–
CC[C@@]1(O)C(=O)OCc2c1cc1n(c2=O)Cc2c-1nc1ccccc1c2/C=N/OC(C)(C)C [Gimatecan],–,–,–,–,–,–,6/6,0,328 ± 65,68.4,578 ± 61,203 ± 33,–,"IC50 ([1]; Homo sapiens, A549, 48 h): 4.7 ± 0.2 nM; IC50 ([2]; Homo sapiens, 48 h): 3.1 ± 2.2 nM; IC50 ([3]; Homo sapiens, BXPC-3, 48 h): 1.5 ± 0.8 nM; IC50 ([4]; Homo sapiens, HT-29, 48 h): 3.6 ± 0.3 nM; Average survival time [6, 18]: 23.1 ± 1.6 days; Maximum change in weight (%) [7, 19]: −13%; MTD [8]: 1 mg/kg; Maximum change in weight (%) [9, 21]: −12%; IC50 ([5]; Homo sapiens, read-out: Concentration to inhibit 50% cell growth, mean (average concentration), mean over U87, BX-PC3, HT-29, OV-3, A549): 2.7 nM; IC50 (U87 (glioma) cells; Homo sapiens, U-87 MG, 48 h): 0.6 ± 0.2 nM"
"CCC1(O)C(=O)OCc2c1cc1n(c2=O)Cc2cc3c(CC=NOC(C)(C)C)c(F)ccc3nc2-1 (stereo not shown) [CPT3, 9-t-butyloxyethyloxime-10-fluoro-camptothecin]",11.2 ± 1,10.1 ± 2.1,3.1 ± 1.5,9.1 ± 3.2,7.1,2.1 ± 1,–,–,–,–,–,–,significant cytotoxicity,–
CCC1(O)C(=O)OCc2c1cc1n(c2=O)Cc2cc3c(CC=NOC(C)(C)C)c(OC(C)=O)ccc3nc2-1 (stereo not shown) [CPT8],19.3 ± 2.2,23.1 ± 3.1,7.1 ± 2.1,11.1 ± 1.8,12.9,4.1 ± 1.7,–,–,–,–,–,–,significant cytotoxicity,–
"CCC1(O)C(=O)OCc2c1cc1n(c2=O)Cc2cc3c(CC=NOC(C)(C)C)cccc3nc2-1 (stereo not shown) [CPT7, 9-t-butyloxyethyloxime-camptothecin]",5.5 ± 0.8,4.1 ± 0.4,2.1 ± 1.2,3.1 ± 1,3.3,1.5 ± 0.3,–,–,–,–,–,–,significant cytotoxicity,–
"CCC1(O)C(=O)OCc2c1cc1n(c2=O)Cc2cc3c(CC=NOC(C)(C)C)c(OC(=O)N4CCC(N5CCCCC5)CC4)ccc3nc2-1 (stereo not shown) [CPT1, 9-t-butyloxyethyloxime-10-[(4′-piperidinylpiperidinyl)carbonyloxy]-camptothecin]",–,–,–,–,–,–,6/6,0,356 ± 51,80.4,358 ± 34,236 ± 34,do not have significant activities in vitro,"Therapeutic effect against transplanted tumors (in words) [10]: good therapeutic effect; Solubility compared with CPT2-10 [11]: better; Stability compared with CPT2-10 [11]: better; Survival time compared with irinotecan and gimatecan ([6]; P<0.05): increased significantly; Average survival time (days) [6, 18]: 26.4 ± 1.2# days; Maximum change in weight (%) ([7]; mouse, in vivo): −13%; Experimentally determined dosage at the same level of toxicity (maximum tolerated dose) [8]: 55 mg/kg; Maximum change in weight (%) ([9]; mouse, in vivo): −12%"
CCc1c2c(nc3ccc(O)cc13)-c1cc3c(c(=O)n1C2)COC(=O)[C@]3(O)CC [SN38],16.6 ± 1.9,17.1 ± 3.2,6.8 ± 2.6,8.7 ± 1.2,10.5,3.1 ± 1.1,–,–,–,–,–,–,–,–
CCc1c2c(nc3ccc(OC(=O)N4CCC(N5CCCCC5)CC4)cc13)-c1cc3c(c(=O)n1C2)COC(=O)[C@]3(O)CC [Irinotecan],–,–,–,–,–,–,6/6,0,361 ± 54,75.3,451 ± 56,214 ± 26,–,"Average survival time [6, 18]: 22.8 ± 1.4 days; Maximum change in weight (%) [7, 19]: −12%; MTD [8]: 55 mg/kg; Maximum change in weight (%) [9, 21]: −13%"
CC[C@@]1(O)C(=O)OCc2c1cc1n(c2=O)Cc2cc3c(CN(C)C)c(O)ccc3nc2-1 [Topotecan],–,–,–,–,19.7,–,2/6,124 ± 12,323 ± 47,18.9,1478 ± 226,223 ± 43,–,"IC50 ([1]; Homo sapiens, A549, 48 h): 28.5 ± 3.9 nM; IC50 ([2]; Homo sapiens, 48 h): 21.1 ± 2.6 nM; IC50 ([3]; Homo sapiens, BXPC-3, 48 h): 19.1 ± 3.7 nM; IC50 ([4]; Homo sapiens, HT-29, 48 h): 17.3 ± 4.2 nM; Maximum change in weight (%) [7, 19]: −14%; MTD [8]: 12 mg/kg; Maximum change in weight (%) [9, 21]: −12%; IC50 (U87 (glioma) cells; Homo sapiens, U-87 MG, 48 h): 12.5 ± 3.2 nM"
"CCC1(OC(=O)C(N)Cc2ccccc2)C(=O)OCc2c1cc1n(c2=O)Cc2cc3c(CC=NOC(C)(C)C)c(OC(=O)N4CCC(N5CCCCC5)CC4)ccc3nc2-1 (stereo not shown) [CPT9, 9-t-butyloxyethyloxime-10-[(4′-piperidinylpiperidinyl)carbonyloxy]-20-phenylalanine carbonyloxy-camptothecin]",–,–,–,–,–,–,–,–,–,–,–,–,do not have significant activities in vitro,–
"CCC1(O)C(=O)OCc2c1cc1n(c2=O)Cc2cc3c(CC=NOC(C)(C)C)c(OC(=O)C(N)Cc4ccccc4)ccc3nc2-1 (stereo not shown) [CPT4, 9-t-butyloxyethyloxime-10-phenylalanine-carbonyloxy-camptothecin]",–,–,–,–,–,–,–,–,–,–,–,–,do not have significant activities in vitro,–
